From patent US20240254138A1, “TRICYCLIC PYRIMIDINES AS CYCLIN-DEPENDENT KINASE 7 (CDK7) INHIBITORS” (JANSSEN PHARMACEUTICA NV, priority 2021, published 2024)
Read-outs that look alike come from different tables or passages of the source.

Key:
[1] = test system: RNA Polymerase II Serine 5 phosphorylation (Rpb1 CTD, downstream substrate of CDK7) in A549 cells; experiment: Imaging-based cellular RNA PolII Ser5 phosphorylation assay in A549 cells; format: cell-based, human; details: wild-type CDK7, RNA PolII Ser5 phosphorylation, averaged over all measurements; for IC50: Homo sapiens, A549, A549 cells, read-out: CDK7_A549 Wild-type CDK7 (pIC50) (converted); for CDK7_A549 Wild-type CDK7 (pIC50): A549 cells
Summary of the method: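 IC50 derived by fitting % control (DMSO high, 10 μM reference low) against concentration, with Hill slope. Readout: high-content imaging of phospho-Ser5 Rpb1 CTD antibody staining in fixed, permeabilized A549 cells exposed to compound 3 h after 20 h culture in 1% FBS DMEM.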

[2] = test system: RNA Polymerase II Serine 5 phosphorylation in A549 cells overexpressing CDK7-mutant (C312S); experiment: Imaging-based cellular RNA PolII Ser5 phosphorylation assay in A549 cells overexpressing CDK7-mutant (C312S); format: cell-based, human; details: RNA PolII Ser5 phosphorylation, averaged over all measurements; for IC50: Homo sapiens, A549, A549 cells overexpressing CDK7-mutant (C312S), read-out: CDK7_A549 mutant hCDK7(pIC50) (converted); for CDK7_A549 mutant hCDK7(pIC50): A549 cells overexpressing CDK7-mutant (C312S)
Summary of the method: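 Readout was automated imaging of anti-phospho-Ser5 Rpb1 CTD immunofluorescence, with IC50 fitted to % control versus concentration. Cells were A549 stably overexpressing non-covalently targetable CDK7 C312S alongside wild-type, exposed to compound 3 h at 37 °C. DMSO and 10 μM reference compound served as controls.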

[3] = target: CDK7/cyclinH/MAT1 trimeric complex (Homo sapiens, UniProt P50613); experiment: In vitro CDK7 assay, potency of irreversible covalent inhibitors (kinact/KI), coupled PK/LDH ADP readout at 340 nm
[4] = read-out: CDK7 (kinact/KI, M^−1*s^−1), potency of irreversible covalent inhibitors, 1 mM ATP, room temperature, averaged values over all measurements
[5] = CDK7 (KI(μM)), […], 1 mM ATP, room temperature, averaged values over all measurements
[6] = read-out: CDK7 (kinact, s^−1), kinact = maximal rate of inactivation, 1 mM ATP, room temperature, averaged values over all measurements
[7] = read-out: CDK7 (20 nM enz.) (kobs/[I], M^−1*s^−1), 20 nM enzyme
[8] = read-out: CDK7 (20 nM enz.) (kinact/KI, M^−1*s^−1), 20 nM enzyme
[9] = CDK7 (20 nM enz.) (KI, μM), 20 nM enzyme
[10] = read-out: CDK7 (20 nM enz.) (kinact, s^−1), 20 nM enzyme

Sequence of CDK7/cyclinH/MAT1 trimeric complex (P50613 whole entry): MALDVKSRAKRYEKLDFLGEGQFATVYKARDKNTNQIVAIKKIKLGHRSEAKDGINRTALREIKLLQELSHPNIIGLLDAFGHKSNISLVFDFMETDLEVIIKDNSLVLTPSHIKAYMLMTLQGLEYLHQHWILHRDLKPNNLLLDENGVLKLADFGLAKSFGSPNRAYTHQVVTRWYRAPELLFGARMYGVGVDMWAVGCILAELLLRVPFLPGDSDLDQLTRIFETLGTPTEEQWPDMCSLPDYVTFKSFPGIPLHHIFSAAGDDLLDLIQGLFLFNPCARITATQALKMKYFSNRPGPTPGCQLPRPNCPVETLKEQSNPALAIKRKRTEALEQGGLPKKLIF
Sequence of CDK7/cyclinH/MAT1 trimeric complex (P51946 whole entry partner): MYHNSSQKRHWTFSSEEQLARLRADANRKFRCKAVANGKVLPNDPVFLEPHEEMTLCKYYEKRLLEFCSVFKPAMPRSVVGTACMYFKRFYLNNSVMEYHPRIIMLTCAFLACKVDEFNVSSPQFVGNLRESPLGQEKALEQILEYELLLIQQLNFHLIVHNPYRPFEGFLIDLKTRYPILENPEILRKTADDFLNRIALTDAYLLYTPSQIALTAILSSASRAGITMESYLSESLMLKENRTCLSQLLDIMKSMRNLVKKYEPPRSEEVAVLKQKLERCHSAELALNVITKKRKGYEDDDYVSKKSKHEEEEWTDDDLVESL
Sequence of CDK7/cyclinH/MAT1 trimeric complex (P51948 whole entry partner): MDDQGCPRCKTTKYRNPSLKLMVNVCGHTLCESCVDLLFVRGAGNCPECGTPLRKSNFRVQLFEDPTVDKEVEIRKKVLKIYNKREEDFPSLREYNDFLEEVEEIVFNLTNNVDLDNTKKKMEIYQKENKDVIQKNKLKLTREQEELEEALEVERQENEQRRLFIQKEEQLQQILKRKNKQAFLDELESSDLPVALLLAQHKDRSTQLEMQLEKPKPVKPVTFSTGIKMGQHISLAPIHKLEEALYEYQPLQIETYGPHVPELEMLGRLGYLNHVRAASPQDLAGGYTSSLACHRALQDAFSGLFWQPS

Row | Compound | IC50 [1] | IC50 [2] | kinact/KI [3, 4] | Ki [3, 5] | kinact [3, 6] | also measured
1 | C=CC(=O)N1CC(N2CCC(c3ccc4c(c3)Nc3nccc(-c5cnn(C)c5)c3CO4)CC2)C1 [Compound 39] | 141 nM | > 10000 nM | 803 M⁻¹ s⁻¹ |  |  | 
2 | C=CC(=O)N1CC(N2CCCC(c3ccc4c(c3)Nc3nccc(N5CCOCC5)c3CO4)C2)C1 (centres unmarked) [Compound 40] | 1120 nM | > 10000 nM | 306 M⁻¹ s⁻¹ | 0.209 µM | 6.41e-05 s⁻¹ | 
3 | C=CC(=O)N1CC(N2CCCC(c3ccc4c(c3)Nc3nccc(N5CCOCC5)c3CO4)CC2)C1 (centres unmarked) [Compound 42] | 123 nM | > 10000 nM | 761 M⁻¹ s⁻¹ | 0.0811 µM | 6.17e-05 s⁻¹ | 
4 | C=CC(=O)N1CC(c2ccc(-c3ccc4c(c3)Nc3nccc(N5CCOCC5)c3CO4)cn2)C1 [Compound 43] | 339 nM | > 10000 nM | 1100 M⁻¹ s⁻¹ | 0.0497 µM | 5.46e-05 s⁻¹ | 
5 | C=CC(=O)N1CC(N2CCC(c3ccc4c(c3)Nc3ncc(C#N)c(N5CCOCC5)c3CO4)CC2)C1 [Compound 45] | 1150 nM | > 10000 nM | 1110 M⁻¹ s⁻¹ | 0.123 µM | 0.000137 s⁻¹ | 
6 | C=CC(=O)N1CC(N2CCC(c3ccc4c(c3)Nc3nccc(N5CCC6(CCO6)CC5)c3CO4)CC2)C1 [Compound 46] | 631 nM | > 10000 nM | 456 M⁻¹ s⁻¹ | 0.223 µM | 0.000102 s⁻¹ | 
7 | C=CC(=O)N1CC(N2CCC(c3ccc4c(c3)Nc3nccc(N5CCOC6(CCOCC6)C5)c3CO4)CC2)C1 [Compound 47] | 871 nM | > 10000 nM | 605 M⁻¹ s⁻¹ | 0.207 µM | 0.000125 s⁻¹ | 
8 | C=CC(=O)N1CC(N2[C@@H]3CC[C@H]2C[C@@H](c2ccc4c(c2)Nc2nccc(N5CCOCC5)c2CO4)C3)C1 [Compound 49] | 53.7 nM | ~10000 nM | 990 M⁻¹ s⁻¹ |  |  | kinact/KI [3, 7]: 1150 M⁻¹ s⁻¹
9 | CC#CC(=O)N1CC(N2CCC(c3ccc4c(c3)Nc3nccc(N5CCOCC5)c3CO4)CC2)C1 [Compound 50] | ~178 nM | > 10000 nM | 1090 M⁻¹ s⁻¹ | 0.132 µM | 0.000144 s⁻¹ | 
10 | C=CC(=O)N1CC(c2nc(C)c(-c3ccc4c(c3)Nc3nccc(N5CCOCC5)c3CO4)c(C)n2)C1 [Compound 51] | 417 nM | > 10000 nM | 1110 M⁻¹ s⁻¹ | 0.0706 µM | 7.84e-05 s⁻¹ | 
11 | C=CC(=O)N1CC(N2CCC(c3ccc4c(c3)OCc3c(-c5cnn(C)c5)ccnc3N4)CC2)C1 [Compound 52] | 282 nM | 2820 nM | 998 M⁻¹ s⁻¹ | 0.166 µM | 0.000166 s⁻¹ | 
12 | C=CC(=O)N1CC(N2CCC(c3ccc4c(c3)Nc3nccc(N5CCCOCC5)c3CO4)CC2)C1 [Compound 53] | 186 nM | > 10000 nM | 773 M⁻¹ s⁻¹ |  |  | 
13 | C=CC(=O)N1CC(N2[C@@H]3CC[C@H]2C[C@H](c2ccc4c(c2)Nc2nccc(N5CCOCC5)c2CO4)C3)C1 [Compound 54] | 145 nM | 8130 nM | 997 M⁻¹ s⁻¹ | 0.1 µM | 0.0001 s⁻¹ | 
14 | C=CC(=O)N1CCC(c2ccc3c(c2)OCc2c(N4CCOCC4)ccnc2N3)C1 (centres unmarked) [Compound 55] | > 10000 nM | > 10000 nM | 2.45 M⁻¹ s⁻¹ |  |  | 
15 | C=CC(=O)N1CC(c2ncc(-c3ccc4c(c3)Nc3nccc(N5CCOCC5)c3CO4)cn2)C1 [Compound 56] | 182 nM | > 10000 nM | 1040 M⁻¹ s⁻¹ | 0.0673 µM | 6.99e-05 s⁻¹ | 
16 | O=C(/C=C/CN1CCOCC1)N1CC(N2CCC(c3ccc4c(c3)Nc3nccc(N5CCOCC5)c3CO4)CC2)C1 [Compound 57] | 1200 nM | > 3980 nM | 518 M⁻¹ s⁻¹ | 0.248 µM | 0.000129 s⁻¹ | 
17 | C=CC(=O)N1CC(c2cc(-c3ccc4c(c3)Nc3nccc(N5CCOCC5)c3CO4)ccn2)C1 [Compound 58] | 490 nM | > 10000 nM | 516 M⁻¹ s⁻¹ | 0.112 µM | 5.76e-05 s⁻¹ | 
18 | C=CC(=O)N1CC(N2CCC(c3cc(C)c4c(c3)Nc3nccc(C5CCOCC5)c3CO4)CC2)C1 [Compound 59] | 72.4 nM |  |  |  |  | CDK7_A549 mutant hCDK7(pIC50) [2]: <5.4; kinact/KI [3, 8]: 1480 M⁻¹ s⁻¹
19 | C=CC(=O)N1CC(N2CCC(c3ccc4c(c3)Nc3ncc(Cl)c(N5CCS(=O)(=O)CC5)c3CO4)CC2)C1 [Compound 60] | 977 nM | > 10000 nM |  |  |  | Ki [3, 9]: 0.128 µM; kinact [3, 10]: 6.43e-05 s⁻¹; kinact/KI [3, 8]: 502 M⁻¹ s⁻¹
20 | C=CC(=O)N1CC(c2ccnc(-c3ccc4c(c3)Nc3nccc(N5CCOCC5)c3CO4)c2)C1 [Compound 61] | 1620 nM | > 10000 nM |  |  |  | Ki [3, 9]: 1.32 µM; kinact [3, 10]: 4.84e-05 s⁻¹; kinact/KI [3, 8]: 36.6 M⁻¹ s⁻¹
21 | C=CC(=O)N1CC(N2CCC(c3cc(F)c4c(c3)Nc3nccc(N5CCOCC5)c3CO4)CC2)C1 [Compound 62] | 77.6 nM | > 10000 nM |  |  |  | Ki [3, 9]: 0.0266 µM; kinact [3, 10]: 6.42e-05 s⁻¹; kinact/KI [3, 8]: 2410 M⁻¹ s⁻¹
22 | C=CC(=O)N1CC(N2CCC(c3ccc4c(c3)Nc3nccc(N5CCOC[C@@H]5C)c3CO4)CC2)C1 [Compound 63] | 288 nM | > 10000 nM |  |  |  | Ki [3, 9]: 0.0857 µM; kinact [3, 10]: 7.59e-05 s⁻¹; kinact/KI [3, 8]: 885 M⁻¹ s⁻¹
23 | C=CC(=O)N1CCC2(CC1)CC(Cc1ccc3c(c1)Nc1nccc(C4CCOCC4)c1CO3)C2 [Compound 64] | > 10000 nM | > 10000 nM |  |  |  | Ki [3, 9]: 0.445 µM; kinact [3, 10]: 1.43e-05 s⁻¹; kinact/KI [3, 8]: 32 M⁻¹ s⁻¹
24 | C=CC(=O)Nc1ccc(CCc2ccc3c(c2)Nc2nccc(N4CCOCC4)c2CO3)cn1 [Compound 65] | 67.6 nM | 8710 nM |  |  |  | kinact/KI [3, 7]: 1160 M⁻¹ s⁻¹
25 | C=CC(=O)N1CC(N2CCC(c3cc(C)c4c(c3)Nc3nccc(N5CCOCC5)c3CO4)CC2)C1 [Compound 66] |  |  |  |  |  | CDK7_A549 Wild-type CDK7 (pIC50) [1]: 7.16; CDK7_A549 mutant hCDK7(pIC50) [2]: <5; kinact/KI [3, 7]: 1030 M⁻¹ s⁻¹
26 | C=CC(=O)N1CC(N2[C@@H]3CC[C@H]2C[C@@H](c2ccc4c(c2)Nc2nccc(N5CCOCC5)c2CO4)C3)C1 [Compound 68] |  |  |  |  |  | CDK7_A549 Wild-type CDK7 (pIC50) [1]: 7.4; CDK7_A549 mutant hCDK7(pIC50) [2]: 5.14; CDK7 (20 nM enz.) (kobs/[I], M^−1*s^−1) ([3]; 20 nM enzyme): 1369 M⁻¹ s⁻¹
27 | C=CC(=O)N1CC(N2CCC(c3cc(C)c4c(c3)Nc3nccc(N5CCS(=O)(=O)CC5)c3CO4)CC2)C1 [Compound 71] | 245 nM | > 10000 nM |  |  |  | Ki [3, 9]: 0.0575 µM; kinact [3, 10]: 5.6e-05 s⁻¹; kinact/KI [3, 8]: 973 M⁻¹ s⁻¹
28 | C=CC(=O)N1CC(N2CCC(c3cc(C)c4c(c3)Nc3nccc(C5CCOCC5)c3CO4)CC2)C1 [Compound 73] |  |  |  |  |  | CDK7_A549 Wild-type CDK7 (pIC50) [1]: 7.32; CDK7_A549 mutant hCDK7(pIC50) [2]: <5; CDK7 (20 nM enz.) (kinact/KI, M^−1*s^−1) ([3]; 20 nM enzyme): 1301.8 M⁻¹ s⁻¹
29 | C=CC(=O)N1CC(N2CCC(c3ccc4c(c3)Nc3nccc(N5CCOC6(CC6)C5)c3CO4)CC2)C1 [Compound 77] | 182 nM | > 10000 nM |  |  |  | Ki [3, 9]: 0.0571 µM; kinact [3, 10]: 5.75e-05 s⁻¹; kinact/KI [3, 8]: 1010 M⁻¹ s⁻¹
